The values that follow come from US11376261B2, “Methods for diagnosing and managing treatment of atopic dermatitis” (University of Cincinnati, priority 2017, dated 2022).

Read-outs that look alike come from different tables or passages of the source.

The test system of experiment [1] is AD skin lesions. Briefly: Pre- vs post-treatment cutaneous gene expression, dupilumab 300 mg (NCBI GEO GSE59294), overlap with 89ADGES. In kind it is in vivo, human. The following applies: administration of dupilumab 300 mg, Fold Change ≥2.0, p-value<0.05. How it is done: (§1) Pre- and post-treatment gene expression datasets have been retrieved from publicly accessible database NCBI GEO, including datasets related to three widely-used treatments for AD: betamethasone and pimecrolimus (NCBI GEO data GSE32473), and dupilumab 300 mg (NCBI GEO data GSE59294).
CCL18, IL-37, SERPINB3 and SERPINB4 genes are associated with multiple array IDs.
Samples in Dupilumab dataset include GSE59294.
(§2) FIG. 6 is a table showing expression of members of the ECZEMA55 gene panel compared to normal skin. Expression changes are due to different treatment options. Betamethasone, pimecrolimus, and dupilumab are shown. Note direction and magnitude of treatment-related expression change for each gene. Treatment inducing change in a direction opposite to that occurring in ECZEMA55 can drive treatment-associated health benefits.

The subject of experiment [2] is atopic dermatitis. The experiment is described as follows: Symptom score of paired patient samples (pEASI reduction in GSE32473; pre-/post-treatment EASI in GSE59294). In kind it is in vivo, human. The protocol:
Gene expression data related to ECZEMA55 genes were extracted for pre- and post-treatment samples. Values were expressed as post-treatment/pre-treatment ratio. Variable selection or feature selection was performed by clustering of 55 genes into smaller number of coherent clusters and identifying the most representative gene per cluster. Representative genes were used to build a regression model which can be used to efficiently model the data. Outcome variable was defined either as the reduction in symptom score (available as per subject pEASI reduction; pEASI=partial EASI reduction in dataset GSE32473) or as the post-treatment symptom score (taking pre-treatment symptom score as an independent covariate and per subject pre-treatment symptom scores is available, as in the dataset GSE59294). A regression model was generated and regression trees were constructed. Classification/prediction and efficiency of the model were determined. Samples in Dupilumab dataset include GSE59294. […] We therefore added pre-treatment symptom score for analysis and for generating regression models

Experiment [3] relates to ECZEMA55 genes. Briefly: Quantitative RT-PCR of ECZEMA55 genes in pre- and post-treatment skin biopsy of an AD patient (Example 7). Format: in vivo, human. The following applies: one AD patient; 600 mg then two 300 mg s.c. injections over 4 weeks. How it is done: An AD patient comes to the clinic with severe itch and lesions on at least 45% of their body surface. Symptoms indicate a possible diagnosis of atopic dermatitis. They are not sufficiently controlled by topical treatments like pimecrolimus and betamethasone. The patient is advised to begin dupilumab treatment. Duplimumab is administered by subcutaneous injection at recommended dosing for adult patients, which is initially at a dose of 600 mg, followed by 300 mg administered every two weeks. The patient is given one 600 mg injection followed by two 300 mg injections over the course of 4 weeks. Pre- and post-treatment samples are collected and stored in RNA later solution (Invitrogen) at −80° C.
Pre- and post-treatment skin biopsy is performed using a minimally invasive disposable punch. The skin biopsy site is swabbed with isopropyl alcohol (70%) and anesthetized with local anesthetic (1 mL of 1% lidocaine+adrenaline). Using a punch biopsy needle, a 4 mm^2 full thickness skin biopsy from the lesion is obtained and stored in RNA later solution and sent to the diagnostic lab to perform RT-PCR assay.
RNA is isolated from the tissue and subjected to quantitative RT-PCR to compare the levels of expression of the ECZEMA55 genes of the patient's tissue to normal healthy skin. […] The treatment is assessed as effective and the patient is advised to receive further dupilumab treatment doses.

In experiment [4] the test system is atopic dermatitis. The following applies: Dupilumab 300 mg, GSE59294, cited from earlier work; for EASI-POST: post-treatment; for EASI-PRE: pre-treatment.
In experiment [5] the test system is AD skin lesions. The experiment is described as follows: Pre- vs post-treatment cutaneous gene expression, betamethasone and pimecrolimus (NCBI GEO GSE32473), overlap with 89ADGES. The following applies: application to AD skin lesions, Fold Change ≥2.0, p-value<0.05. In kind it is in vivo, human. How it is done: as §1
Members of 89ADGES that are differentially regulated due to the application of betamethasone to AD skin lesions. […] CCL18, MSMB, SERPINB3 and SERPINB4 genes are associated with multiple array IDs.
BTC, CCL18, MSMB, IL-37, SERPINB3 and SERPINB4 genes are associated with multiple array IDs.
as §2

For the compound “dupilumab: fully humanized monoclonal IgG4 antibody that inhibits IL-4 and IL-13 signaling by binding the IL-4Rα subunit”, in experiment [1], the “Number of 89ADGES genes differentially regulated in treated biopsy samples compared to baseline pre-treatment condition” value came to 42 genes. In addition, the EASI-post/pre in experiment [2] (Patient 1, Dupilumab 300 mg) came to 0.263; in experiment [2] (Patient 2, Dupilumab 300 mg), 0.122; in experiment [2] (Patient 3, Dupilumab 300 mg), 0.044. In addition, the “Direction of ECZEMA55 gene expression change after treatment” value in experiment [3] was “opposite to gene expression in AD disease state compared to healthy skin”. In addition, the “Number of ECZEMA55 genes with expression changed compared to pre-treatment” value in experiment [3] was “about 30 genes”. The values for the EASI-POST in experiment [4] (Patient 1), in experiment [4] (Patient 2) and in experiment [4] (Patient 3) were 9.105, 3.835 and 1.526, respectively. The figures for the EASI-PRE in experiment [4] (Patient 1), in experiment [4] (Patient 2) and in experiment [4] (Patient 3) were 34.6, 31.45 and 34.65, respectively.
With `C[C@H]1C[C@H]2[C@@H]3CCC4=CC(=O)C=C[C@]4(C)[C@@]3(F)[C@@H](O)C[C@]2(C)[C@@]1(O)C(=O)CO` [betamethasone], the “Number of 89ADGES genes differentially regulated in treated biopsy samples compared to baseline pre-treatment condition” value in experiment [5] came out at 45 genes.
On to `CC[C@@H]1/C=C(\C)C[C@H](C)C[C@H](OC)[C@H]2O[C@@](O)(C(=O)C(=O)N3CCCC[C@H]3C(=O)O[C@H](/C(C)=C/[C@@H]3CC[C@H](Cl)[C@H](OC)C3)[C@H](C)[C@@H](O)CC1=O)[C@H](C)C[C@@H]2OC` [pimecrolimus], for which, in experiment [5], the “Number of 89ADGES genes differentially regulated in treated biopsy samples compared to baseline pre-treatment condition” value is 41 genes.
